Legend:
[1] = test system: blood glucose levels; assay: Blood glucose levels in ob/ob mice; format: in vivo, mouse
Description: Mice were kept in 12 h light/dark cycle in a temperature-controlled environment. Mice had free access to food and water unless noted otherwise. C57/B6 mice background was used unless noted otherwise. C57BL/6J and ob/ob (000632-B6. Cg-Lepob/J) male mice were obtained from Jackson Laboratory. PDE4D knock-out mice (034588-UCD) were obtained from MMRRC. For diet-induced obesity (DIO) studies, mice were fed a high fat diet (HFD) (60% fat, F3282; Bio-Serv) for minimum of 12 weeks to induce insulin resistance when diet-induced obese model is used. Insulin levels and blood glucose levels were monitored to confirm insulin resistance. To generate adipose-specific FGFR1 deletion, adiponectin-cre mice (B6; FVB-Tg (Adipoq-cre)1Evdr/J; Stock: 010803) were crossed to Fgfr1 flox/flox (B6.129S4-Fgfr1tm5.1Sor/J; Stock: 00767) mice. For AAV mediated expression of target proteins in adipose tissue, 5×10E+11 genomic copies of AAV were injected via tail vein or retro-orbital route.
Recombinant FGF1 (rFGF1) was dissolved in phosphate-buffered saline (PBS) at a concentration of 0.2 mg/ml and was injected subcutaneously at a 0.5 mg kg^−1 dose. Blood glucose was monitored at indicated time points after injection. For initial measurements (2-4 h) food was removed after injection to exclude any indirect effects stemming from anorexigenic effects of FGF1. PDE4 inhibitor roflumilast stock in DMSO was diluted at 1 mg/ml in 30% captisol, pH 10 and delivered to mice thorough oral gavage at 5 mg kg^−1 dose. PDE3 inhibitor cilostamide stock in DMSO was diluted at 2 mg/ml in 30% captisol and delivered through intraperitoneal injection at 10 mg kg^−1 dose.

[2] = test system: pyruvate carboxylase; assay: Hepatic pyruvate carboxylase (Pcx) activity assay; format: in vivo, mouse; settings: HFD-fed adR1WT mice, FGF1 0.5 mg/kg
Description: Pcx activity was determined by malate dehydrogenase coupling method originally reported by Payne et al. (Payne and Morris, 1969). Briefly, mice were sacrificed by decapitation. Liver samples were rapidly frozen in liquid nitrogen within 5 seconds of excision designed to avoid loss of hepatic acetyl-CoA levels. Frozen liver samples were pulverized on dry ice and approximately 100 mg of tissues were homogenized with TissueLyzer in Pcx activity assay buffer (50 mM Tris pH8, 10 mM MgCl2, 10 mM NaHCO3). Homogenates were cleared by centrifugation at 14000 rpm for 10 minutes. Cleared supernatants were diluted in Pcx activity assay buffer to approximately 1 μg/ul. Approximately 5 μg protein was loaded onto 96-well plates and the total volume was brought up to 20 ul by Pcx activity assay buffer. Absorbance at 340 nm was monitored every 9 seconds at 37° C. immediately after the addition of 80 ul Pcx reaction buffer (50 mM Tris pH8, 10 mM MgCl2, 10 mM NaHCO3, 6.25 mM ATP, 0.125 mM NADH, 2.5 mM pyruvate, malate dehydrogenase 0.025 U/ml in Pcx activity assay buffer). Pcx activity was determined as the loss of absorbance at 340 nm over time normalized to protein concentration.

[3] = test system: HSL phosphorylation at S660; assay: Western blot of pHSL-S660 in gWAT after injection; format: in vivo, mouse; settings: 30 min after FGF1 injection 0.5 mg/kg
Description: (§1) Tissues were lysed in cold lysis buffer (50 mM Tris, pH 7.5, 150 mM NaCl, 1% NP40, 0.5% NaDoc, 0.1% SDS, 5% glycerol, 1 mM EDTA, protease and phosphatase inhibitors (complete and PhosSTOP (Roche)) by homogenization by bead-beater for 30 s. Samples were cleared for 10 min at 18,000 g at 4° C. and the middle clear phase was transferred to new tubes. A second 30 min centrifugation was performed and the middle clear phase was transferred to new tubes. Five ul protein extract was used for BCA assay to determine protein concentration. Samples were boiled in Laemmli buffer. SDS-PAGE and blotting were performed using gradient gels and Trans-Blot Turbo Transfer System (Bio-Rad). Antibodies used were PDE4D (12918-1-AP, Proteintech), pHSL-660 (4126S, Cell signaling), HSL (4107S, Cell Signaling), tubulin (CP06, Millipore Sigma), and GFP (A01388, GenScript). PDE4D3-pS44 phospho-specific antibody was generated using PDE4D3-S44 FRRHpSWISFDVDNGTSAGR peptide (SEQ ID NO: 20) (Mackenzie et al., 2002) by Pocono Rabbit Farm, using 70-day rabbit antibody production protocol and purified via affinity purification. Primary antibodies were incubated for 2 h at room temperature (RT) or overnight (ON) at 4° C. Blots were developed using SuperSignal West Pico PLUS Chemiluminescent Substrate (ThermoFisher Scientific) and imaged with BioRad GelDoc system.

[4] = test system: HSL phosphorylation at S660; assay: Western blot of pHSL-S660 in 3T3-L1 adipocytes; format: cell-based; settings: basal and ISO-stimulated, FGF1 100 ng/ml
Description: as §1

Substance: FGF1: Recombinant fibroblast growth factor 1 protein, dissolved in PBS, injected subcutaneously
- blood glucose, FGF1 co-administered with atglistatin ([1]; ad lib fed ob/ob mice, FGF1 0.5 mg/kg + atglistatin 120 mg/kg): no additive effects
- blood glucose ([1]; ad lib fed ob/ob mice, FGF1 0.5 mg/kg s.c. as single agent): robustly lowered blood glucose
- FGF1-induced reduction in glucose levels in mice overexpressing PDE4D3 ([1]; ob/ob mice with adAAV-PDE4D3, FGF1 0.5 mg/kg): greater reduction in glucose levels
- FGF1 glucose response in mice expressing the S44A mutant ([1]; ob/ob mice with adAAV-PDE4D3 S44A, FGF1 0.5 mg/kg): indistinguishable from control mice
- reduction in pyruvate carboxylase activity [2]: ~50%
- pHSL levels in gWAT [3]: decreased
- HSL phosphorylation at S660 (pHSL) [4]: suppressed HSL phosphorylation at S660

Reference: patent US20250082781A1, “METHODS OF LOWERING BLOOD GLUCOSE AND TREATING TYPE 2 DIABETES BY ACTIVATION OF PDE4D3” (Salk Institute for Biological Studies, priority 2021, published 2025)
